Results: patent US12180178B2, “Heteroaryl azole compound and pest control agent” (NIPPON SODA CO., LTD., priority 2018, dated 2024)
Read-outs that look alike come from different tables or passages of the source.

Experiments:
Type in all cases: in vivo
Mythimna separata = assay: Test of Efficacy on Mythimna separata (test feed); conditions: 1 μl of emulsion (I) (5% active ingredient) in 0.8 g artificial feed; second instar larvae; 25° C.; fifth day
Experimental: 5 parts of the heteroaryl azole compound of the present invention, 93.6 parts of dimethylformamide, and 1.4 parts of polyoxyethylene alkyl aryl ether were mixed and dissolved to prepare emulsion (I) containing 5% of the active ingredient. For a control, 98.5 parts of dimethylformamide and 1.5 parts of polyoxyethylene alkyl aryl ether were mixed and dissolved to prepare emulsion (II). An insecticidal rate was calculated according to the following expression: Insecticidal rate (%)=(The number of dead insects/The number of tested insects)×100 0.8 g of commercially available artificial feed (Insecta LFS, manufactured by Nosan Corp.) and 1 μl of the emulsion (I) were well mixed to obtain test feed. A plastic test container (capacity: 1.4 ml) was packed with 0.2 g of the test feed per treatment plot. Then, two second instar larvae of Mythimna separata were inoculated to each treatment plot. A plastic lid was put on the test container so as to prevent escape of the second instar larvae of Mythimna separata. The container was placed in a thermostat chamber of 25° C. On the fifth day, the insecticidal rate and the food intake were examined. The test was conducted in duplicate. The insecticidal rate and the food intake of a control plot were examined in the same way as in Test Example 1 except that the emulsion (I) was changed to the emulsion (II).

Aphis craccivora = assay: Test of Efficacy on Aphis craccivora (spray on black-eyed peas); conditions: 96 h, read-out: insecticidal rate
Experimental: 5 parts of the heteroaryl azole compound of the present invention, 93.6 parts of dimethylformamide, and 1.4 parts of polyoxyethylene alkyl aryl ether were mixed and dissolved to prepare emulsion (I) containing 5% of the active ingredient.
An insecticidal rate was calculated according to the following expression: Insecticidal rate (%)=(The number of dead insects/The number of tested insects)×100
Seedlings of black-eyed peas were raised in 10-cm pots. Aphis craccivora nymphs were inoculated onto primary leaves. The emulsion (I) was diluted with water such that the concentration of the compound of the present invention was 125 ppm. The dilution was sprayed to the black-eyed peas parasitized by the Aphis craccivora nymphs. The black-eyed peas were placed in a thermostat chamber having a temperature of 25° C. and a humidity of 60%. Life and death of Aphis craccivora were determined after 4 days from the spraying, and the insecticidal rate was calculated. The test was conducted in duplicate.

Plutella xylostella = assay: Test of Efficacy on Plutella xylostella (cabbage leaf dip); conditions: foliar, 72 h, cabbage leaves dipped 30 seconds, second instar larvae, after 3 days, read-out: insecticidal rate
Experimental: 5 parts of the heteroaryl azole compound of the present invention, 93.6 parts of dimethylformamide, and 1.4 parts of polyoxyethylene alkyl aryl ether were mixed and dissolved to prepare emulsion (I) containing 5% of the active ingredient. An insecticidal rate was calculated according to the following expression: Insecticidal rate (%)=(The number of dead insects/The number of tested insects)×100 The emulsion (I) was diluted with water such that the concentration of the compound of the present invention was 125 ppm. Cabbage leaves were dipped in the dilution for 30 seconds. The resulting cabbage leaves were placed in a petri dish. Five second instar larvae of Plutella xylostella were released thereto. The petri dish was placed in a thermostat chamber having a temperature of 25° C. and a humidity of 60%. Life and death were determined after 3 days from the release of the insects, and the insecticidal rate was calculated. The test was conducted in duplicate.

[1] = 125 ppm, sprayed to black-eyed peas, nymphs, after 4 days

With `CCS(=O)(=O)c1cc(C2(C)CC2)cnc1-c1ncn(/C=C(\F)C(F)(F)C(F)(F)C(F)(F)F)n1` [b-22] the “insecticidal rate or food intake as compared with the control plot” value (Mythimna separata) was “insecticidal rate of 100% for Mythimna separata or a food intake of 10% or less as compared with the control plot”.

For `CCS(=O)(=O)c1ccc(-n2cncn2)nc1-c1ncn(-c2ccc(C(F)(F)F)cn2)n1` [d-3], the “insecticidal rate or food intake as compared with the control plot” value (Mythimna separata) was “insecticidal rate of 100% for Mythimna separata or a food intake of 10% or less as compared with the control plot” and the pest or weed control at 125 ppm (Aphis craccivora; [1]) was at least 80%.

In the case of `CCS(=O)(=O)c1ccc(-n2cncn2)nc1-c1cn(-c2ccc(OC(F)(F)F)cc2)cn1` [d-24], the “insecticidal rate or food intake as compared with the control plot” value (Mythimna separata) is reported as “insecticidal rate of 100% for Mythimna separata or a food intake of 10% or less as compared with the control plot”, the pest or weed control at 125 ppm (Plutella xylostella) is reported as at least 80% and the pest or weed control at 125 ppm (Aphis craccivora; [1]) is reported as at least 80%.

With `CCS(=O)(=O)c1cc(-c2ncccn2)cnc1-c1ncn(/C=C(\F)C(F)(F)C(F)(F)F)n1` [b-12] the “insecticidal rate or food intake as compared with the control plot” value (Mythimna separata) was “insecticidal rate of 100% for Mythimna separata or a food intake of 10% or less as compared with the control plot”.

With `CCS(=O)(=O)c1cc(-c2ncccn2)cnc1-c1ncn(CC(F)(F)C(F)(F)F)c1C` [c-2] the “insecticidal rate or food intake as compared with the control plot” value (Mythimna separata) was “insecticidal rate of 100% for Mythimna separata or a food intake of 10% or less as compared with the control plot” and the pest or weed control at 125 ppm (Aphis craccivora; [1]) was at least 80%.

`CCS(=O)(=O)c1ccc(-n2cncn2)nc1-c1ncn(-c2ccc(OC(F)(F)F)cc2)n1` [d-11] was tested, and the “insecticidal rate or food intake as compared with the control plot” value (Mythimna separata) was “insecticidal rate of 100% for Mythimna separata or a food intake of 10% or less as compared with the control plot” and the pest or weed control at 125 ppm (Aphis craccivora; [1]) was at least 80%.

With `CCS(=O)(=O)c1cc(C2(C)CC2)cnc1-c1ncn(-c2ccc(OC(F)(F)F)cc2)n1` [d-14] the “insecticidal rate or food intake as compared with the control plot” value (Mythimna separata) was “insecticidal rate of 100% for Mythimna separata or a food intake of 10% or less as compared with the control plot” and the pest or weed control at 125 ppm (Aphis craccivora; [1]) was at least 80%.

`CCS(=O)(=O)c1cc(-c2ccccn2)cnc1-c1ncn(-c2ccc(OC(F)(F)C(F)F)cc2)n1` [d-16] was tested, and the “insecticidal rate or food intake as compared with the control plot” value (Mythimna separata) was “insecticidal rate of 100% for Mythimna separata or a food intake of 10% or less as compared with the control plot”, the pest or weed control at 125 ppm (Plutella xylostella) was at least 80% and the pest or weed control at 125 ppm (Aphis craccivora; [1]) was at least 80%.

`CCS(=O)(=O)c1cc(Br)cnc1-c1ncn(CC(F)(F)C(F)(F)F)c1C` [c-4] gave a pest or weed control at 125 ppm (Aphis craccivora; [1]) of at least 80%.

With `C=C(C)c1cnc(-c2ncn(-c3ccc(OC(F)(F)F)cc3)n2)c(S(=O)(=O)CC)c1` [d-13] the “insecticidal rate or food intake as compared with the control plot” value (Mythimna separata) was “insecticidal rate of 100% for Mythimna separata or a food intake of 10% or less as compared with the control plot”.

`CCS(=O)(=O)c1ccc(S(=O)(=O)CC)c(-c2cn(-c3ccc(OC(F)(F)F)cc3)cn2)n1` [d-21] was tested, and the pest or weed control at 125 ppm (Aphis craccivora; [1]) was at least 80%.

`CCS(=O)(=O)c1cc(C2CC2)cnc1-c1ncn(-c2ccc(C(F)(F)F)cn2)n1` [d-4, 5-cyclopropyl-3-(ethylsulfonyl)-2-(1-(5-(trifluoromethyl)pyridin-2-yl)-1H-1,2,4-triazol-3-yl)pyridine] was tested, and the “insecticidal rate or food intake as compared with the control plot” value (Mythimna separata) was “insecticidal rate of 100% for Mythimna separata or a food intake of 10% or less as compared with the control plot”, the pest or weed control at 125 ppm (Plutella xylostella) was at least 80% and the pest or weed control at 125 ppm (Aphis craccivora; [1]) was at least 80%.

In the case of `CCS(=O)(=O)c1cc(-c2ncccn2)cnc1-c1ncn(CC(F)(F)C(F)(F)C(F)(F)C(F)F)c1C` [a-15], the “insecticidal rate or food intake as compared with the control plot” value (Mythimna separata) is reported as “insecticidal rate of 100% for Mythimna separata or a food intake of 10% or less as compared with the control plot”.

`CCS(=O)(=O)c1cc(-c2cc(F)cc(F)c2)cnc1-c1ncn(/C=C(\F)C(F)(F)C(F)(F)F)n1` [b-3] was tested, and the “insecticidal rate or food intake as compared with the control plot” value (Mythimna separata) was “insecticidal rate of 100% for Mythimna separata or a food intake of 10% or less as compared with the control plot”.

In the case of `CCS(=O)(=O)c1cc(-c2ccccn2)cnc1-c1ncn(-c2ccc(OC(F)(F)F)cc2)c1C` [d-25], the “insecticidal rate or food intake as compared with the control plot” value (Mythimna separata) is reported as “insecticidal rate of 100% for Mythimna separata or a food intake of 10% or less as compared with the control plot”, the pest or weed control at 125 ppm (Plutella xylostella) is reported as at least 80% and the pest or weed control at 125 ppm (Aphis craccivora; [1]) is reported as at least 80%.

For `CCS(=O)(=O)c1cc(C2CC2)cnc1-c1ncn(CC(F)(F)C(F)(F)C(F)(F)F)c1C` [c-6], the “insecticidal rate or food intake as compared with the control plot” value (Mythimna separata) was “insecticidal rate of 100% for Mythimna separata or a food intake of 10% or less as compared with the control plot” and the pest or weed control at 125 ppm (Aphis craccivora; [1]) was at least 80%.

`CCS(=O)(=O)c1cc(C(F)(F)F)cnc1-c1ncn(CC(F)(F)C(F)(F)C(F)(F)F)c1C` [a-5] was tested, and the “insecticidal rate or food intake as compared with the control plot” value (Mythimna separata) was “insecticidal rate of 100% for Mythimna separata or a food intake of 10% or less as compared with the control plot”.

For `CCS(=O)(=O)c1ccc(Cl)nc1-c1ncn(-c2ccc(OC(F)(F)F)cc2)n1` [d-10], the “insecticidal rate or food intake as compared with the control plot” value (Mythimna separata) was “insecticidal rate of 100% for Mythimna separata or a food intake of 10% or less as compared with the control plot” and the pest or weed control at 125 ppm (Aphis craccivora; [1]) was at least 80%.

`CCS(=O)(=O)c1cc(-c2ccccn2)cnc1-c1ncn(CC(F)(F)C(F)(F)F)c1C` [c-1, 5′-(ethylsulfonyl)-6′-(5-methyl-1-(2,2,3,3,3-pentafluoropropyl)-1H-imidazol-4-yl)-2,3′-bipyridine] was tested, and the “insecticidal rate or food intake as compared with the control plot” value (Mythimna separata) was “insecticidal rate of 100% for Mythimna separata or a food intake of 10% or less as compared with the control plot” and the pest or weed control at 125 ppm (Aphis craccivora; [1]) was at least 80%.

`CCS(=O)(=O)c1cc(-c2ccccn2)cnc1-c1ncn(-c2ccc(OC(F)(F)F)cc2)c1Br` [d-23] showed a pest or weed control at 125 ppm (Plutella xylostella) of at least 80%.

For `CCS(=O)(=O)c1ccc(-n2cncn2)nc1-c1ncn(-c2ccc(OC(F)(F)F)cc2)c1Br` [d-26], the “insecticidal rate or food intake as compared with the control plot” value (Mythimna separata) was “insecticidal rate of 100% for Mythimna separata or a food intake of 10% or less as compared with the control plot”, the pest or weed control at 125 ppm (Plutella xylostella) was at least 80% and the pest or weed control at 125 ppm (Aphis craccivora; [1]) was at least 80%.

`CCS(=O)(=O)c1cc(C2CC2)cnc1-c1ncn(CC(F)(F)C(F)(F)F)c1C` [c-3] gave a pest or weed control at 125 ppm (Aphis craccivora; [1]) of at least 80%.

In the case of `CCS(=O)(=O)c1cc(C2CC2)cnc1-c1ncn(-c2ccc(OC(F)(F)C(F)F)cc2)n1` [d-15], the “insecticidal rate or food intake as compared with the control plot” value (Mythimna separata) is reported as “insecticidal rate of 100% for Mythimna separata or a food intake of 10% or less as compared with the control plot” and the pest or weed control at 125 ppm (Plutella xylostella) is reported as at least 80%.

With `CCS(=O)(=O)c1cc(C2CC2)cnc1-c1ncn(/C=C(\F)C(F)(F)F)c1C` [a-14] the “insecticidal rate or food intake as compared with the control plot” value (Mythimna separata) was “insecticidal rate of 100% for Mythimna separata or a food intake of 10% or less as compared with the control plot”.

`CCS(=O)(=O)c1cc(C2CC2)cnc1-c1ncn(/C=C(\F)C(F)(F)C(F)(F)F)n1` [b-10] was tested, and the “insecticidal rate or food intake as compared with the control plot” value (Mythimna separata) was “insecticidal rate of 100% for Mythimna separata or a food intake of 10% or less as compared with the control plot”.

`CCS(=O)(=O)c1cnc(-c2ncccn2)nc1-c1ncn(-c2ccc(C(F)(F)C(F)(F)F)cc2)n1` [d-18] showed a pest or weed control at 125 ppm (Aphis craccivora; [1]) of at least 80%.

For `CCS(=O)(=O)c1cc(Br)cnc1-c1ncn(/C=C(\F)C(F)(F)C(F)(F)C(F)F)n1` [b-20], the “insecticidal rate or food intake as compared with the control plot” value (Mythimna separata) was “insecticidal rate of 100% for Mythimna separata or a food intake of 10% or less as compared with the control plot”.

In the case of `CCS(=O)(=O)c1cc(C2CC2)cnc1-c1ncn(-c2ccc(SC(F)(F)F)cc2)n1` [d-9], the “insecticidal rate or food intake as compared with the control plot” value (Mythimna separata) is reported as “insecticidal rate of 100% for Mythimna separata or a food intake of 10% or less as compared with the control plot”.

`CCS(=O)(=O)c1cc(C(F)(F)F)cnc1-c1ncn(/C=C(\F)C(F)(F)C(F)(F)F)c1C` [a-4] was tested, and the “insecticidal rate or food intake as compared with the control plot” value (Mythimna separata) was “insecticidal rate of 100% for Mythimna separata or a food intake of 10% or less as compared with the control plot”.

`CCS(=O)(=O)c1cc(Br)cnc1-c1ncn(CC(F)(F)C(F)(F)C(F)(F)F)c1C` [c-7] was tested, and the pest or weed control at 125 ppm (Aphis craccivora) was at least 80%.

With `CCS(=O)(=O)c1cc(-c2ncccn2)cnc1-c1ncn(-c2ccc(C(F)(F)F)cn2)n1` [d-5] the “insecticidal rate or food intake as compared with the control plot” value (Mythimna separata) was “insecticidal rate of 100% for Mythimna separata or a food intake of 10% or less as compared with the control plot” and the pest or weed control at 125 ppm (Plutella xylostella) was at least 80%.
